Test results reported in ChEMBL document CHEMBL5346973 (J Med Chem, 2023).
Where a SMILES comes first, the peptide text is derived from it.

How the values were obtained:
[1] = biological target: Nicotinic acetylcholine receptor alpha9/alpha10 (Rattus norvegicus, UniProt P43144+Q9JLB5); assay: Antagonist activity at rat alpha9alpha10 nACh receptor expressed in Xenopus oocyte assessed as inhibition of acetylcholine-induced response at -70 mV holding potential by voltage-clamp based electrophysiological assay; assay type: cell-based
Sequence of Nicotinic acetylcholine receptor alpha9/alpha10 (P43144 whole entry): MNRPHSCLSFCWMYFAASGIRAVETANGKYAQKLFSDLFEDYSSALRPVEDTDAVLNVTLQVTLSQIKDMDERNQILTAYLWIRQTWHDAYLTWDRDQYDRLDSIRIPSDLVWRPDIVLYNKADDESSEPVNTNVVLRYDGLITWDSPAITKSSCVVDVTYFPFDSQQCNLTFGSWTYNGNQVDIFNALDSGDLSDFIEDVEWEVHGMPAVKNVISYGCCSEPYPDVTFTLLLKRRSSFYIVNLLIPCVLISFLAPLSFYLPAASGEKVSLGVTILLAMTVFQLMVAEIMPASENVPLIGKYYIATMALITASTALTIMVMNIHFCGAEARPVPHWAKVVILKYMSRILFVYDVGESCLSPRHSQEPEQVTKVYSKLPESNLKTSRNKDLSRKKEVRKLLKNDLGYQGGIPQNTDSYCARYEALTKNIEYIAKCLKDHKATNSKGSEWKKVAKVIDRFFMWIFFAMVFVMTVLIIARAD
Sequence of Nicotinic acetylcholine receptor alpha9/alpha10 (Q9JLB5 whole entry): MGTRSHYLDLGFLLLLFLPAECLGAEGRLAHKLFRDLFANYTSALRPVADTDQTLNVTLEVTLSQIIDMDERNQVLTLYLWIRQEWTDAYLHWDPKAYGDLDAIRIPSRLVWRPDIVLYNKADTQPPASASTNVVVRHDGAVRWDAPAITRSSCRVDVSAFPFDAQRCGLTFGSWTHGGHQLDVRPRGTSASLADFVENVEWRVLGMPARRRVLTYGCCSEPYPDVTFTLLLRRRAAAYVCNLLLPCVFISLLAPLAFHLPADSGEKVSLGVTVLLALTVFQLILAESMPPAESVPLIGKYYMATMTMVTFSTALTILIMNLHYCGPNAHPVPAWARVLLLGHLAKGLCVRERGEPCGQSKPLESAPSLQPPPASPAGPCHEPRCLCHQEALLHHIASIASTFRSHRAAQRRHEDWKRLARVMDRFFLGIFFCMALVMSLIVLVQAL

[2] = Selectivity ratio of IC50 for human alpha9alpha10 nACh receptor to IC50 for rat alpha9alpha10 nACh receptor
[3] = biological target: Neuronal acetylcholine receptor; alpha9/alpha10 (Homo sapiens, UniProt Q9GZZ6+Q9UGM1); assay: Antagonist activity at human alpha9alpha10 nACh receptor expressed in Xenopus oocyte assessed as inhibition of acetylcholine-induced response at -70 mV holding potential by voltage-clamp based electrophysiological assay; assay type: cell-based
Sequence of Neuronal acetylcholine receptor; alpha9/alpha10 (Q9UGM1 whole entry): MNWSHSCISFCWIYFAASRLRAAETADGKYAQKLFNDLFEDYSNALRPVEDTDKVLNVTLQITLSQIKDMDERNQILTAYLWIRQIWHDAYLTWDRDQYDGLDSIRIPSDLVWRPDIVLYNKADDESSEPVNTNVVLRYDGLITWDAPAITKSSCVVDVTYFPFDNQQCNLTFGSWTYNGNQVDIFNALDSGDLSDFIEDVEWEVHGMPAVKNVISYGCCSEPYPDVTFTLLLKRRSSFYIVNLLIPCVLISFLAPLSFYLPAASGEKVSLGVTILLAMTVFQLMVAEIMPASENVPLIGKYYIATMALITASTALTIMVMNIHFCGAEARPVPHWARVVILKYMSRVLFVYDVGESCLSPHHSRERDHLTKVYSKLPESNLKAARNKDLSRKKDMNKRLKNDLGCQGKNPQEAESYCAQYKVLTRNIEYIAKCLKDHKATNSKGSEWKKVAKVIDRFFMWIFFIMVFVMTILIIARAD
Sequence of Neuronal acetylcholine receptor; alpha9/alpha10 (Q9GZZ6 whole entry): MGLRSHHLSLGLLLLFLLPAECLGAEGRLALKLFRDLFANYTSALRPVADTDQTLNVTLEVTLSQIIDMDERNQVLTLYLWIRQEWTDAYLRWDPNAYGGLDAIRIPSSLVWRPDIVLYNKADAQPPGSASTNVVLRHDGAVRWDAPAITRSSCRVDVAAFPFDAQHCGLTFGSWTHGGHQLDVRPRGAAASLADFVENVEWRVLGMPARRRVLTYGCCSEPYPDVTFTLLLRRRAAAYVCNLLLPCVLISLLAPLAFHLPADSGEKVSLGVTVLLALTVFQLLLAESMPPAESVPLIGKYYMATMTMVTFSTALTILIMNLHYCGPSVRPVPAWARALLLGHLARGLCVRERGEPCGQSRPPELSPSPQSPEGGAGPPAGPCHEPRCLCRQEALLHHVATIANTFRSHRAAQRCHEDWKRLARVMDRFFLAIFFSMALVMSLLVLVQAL

[4] = biological target: Neuronal acetylcholine receptor subunit alpha-7 (Rattus norvegicus, UniProt Q05941); assay: Antagonist activity at rat alpha7 nACh receptor expressed in Xenopus oocyte assessed as inhibition of acetylcholine-induced response at -70 mV holding potential by voltage-clamp based electrophysiological assay; assay type: cell-based
Sequence of Neuronal acetylcholine receptor subunit alpha-7 (Q05941 whole entry): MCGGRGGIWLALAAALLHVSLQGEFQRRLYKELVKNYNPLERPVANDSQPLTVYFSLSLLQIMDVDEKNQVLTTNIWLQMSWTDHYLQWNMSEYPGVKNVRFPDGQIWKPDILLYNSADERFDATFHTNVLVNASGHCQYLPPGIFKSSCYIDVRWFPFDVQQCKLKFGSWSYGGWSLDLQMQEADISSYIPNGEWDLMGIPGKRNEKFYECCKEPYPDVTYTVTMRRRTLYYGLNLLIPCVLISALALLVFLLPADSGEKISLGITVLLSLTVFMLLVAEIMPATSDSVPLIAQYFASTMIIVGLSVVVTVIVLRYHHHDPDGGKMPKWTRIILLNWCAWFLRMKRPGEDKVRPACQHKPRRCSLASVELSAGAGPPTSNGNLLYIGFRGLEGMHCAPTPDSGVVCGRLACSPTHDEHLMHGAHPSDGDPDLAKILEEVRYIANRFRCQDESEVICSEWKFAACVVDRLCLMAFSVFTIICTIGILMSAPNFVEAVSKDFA

Compound	IC50 [1] [nM]	Ratio IC50 [2]	IC50 [3] [nM]	IC50 [4] [nM]
N=C(N)NCCC[C@H](NC(=O)[C@H](CS)NC(=O)[C@H](CCCNC(=N)N)NC(=O)[C@H](Cc1ccc(O)cc1)NC(=O)[C@H](CCCNC(=N)N)NC(=O)[C@H](CS)NC(=O)[C@H](CCCNC(=N)N)NC(=O)[C@@H]1CCCN1C(=O)[C@H](CC(=O)O)NC(=O)[C@H](CO)NC(=O)[C@H](CS)NC(=O)[C@H](CS)NC(=O)CN)C(=O)O	1.5	329	494	–
CC(C)C[C@H](NC(=O)[C@H](CCC(=O)O)NC(=O)[C@@H]1CCCN1C(=O)[C@H](Cc1cnc[nH]1)NC(=O)[C@H](CC(N)=O)NC(=O)[C@@H](NC(=O)[C@H](CO)NC(=O)[C@H](CS)NC(=O)[C@H](C)NC(=O)[C@@H]1CCCN1C(=O)[C@H](Cc1cnc[nH]1)NC(=O)[C@H](CO)NC(=O)[C@H](CS)NC(=O)[C@H](CS)NC(=O)CN)C(C)C)C(=O)N[C@@H](CS)C(N)=O (H-GCCSHPACSVNHPELC-NH2)	6.9	3.2	22.2	–
C[C@@H](O)[C@H](NC(=O)[C@H](CS)NC(=O)[C@H](CS)NC(=O)CN)C(=O)N[C@@H](CC(=O)O)C(=O)N1CCC[C@H]1C(=O)N[C@@H](CCCNC(=N)N)C(=O)N[C@@H](CS)C(=O)N[C@@H](CCCNC(=N)N)C(=O)N[C@@H](Cc1ccc(O)c(I)c1)C(=O)N[C@@H](CCC(N)=O)C(=O)N[C@@H](CS)C(=O)N[C@@H](Cc1ccc(O)cc1)C(=O)O	0.9	1.7	1.5	–
CC[C@H](C)[C@H](NC(=O)[C@H](CCC(=O)O)NC(=O)[C@@H]1CCCN1C(=O)[C@H](Cc1cnc[nH]1)NC(=O)[C@H](CC(=O)O)NC(=O)[C@H](Cc1ccc(O)cc1)NC(=O)[C@H](CC(N)=O)NC(=O)[C@H](CS)NC(=O)[C@H](CCCNC(=N)N)NC(=O)[C@@H]1CCCN1C(=O)[C@H](CC(=O)O)NC(=O)[C@H](CO)NC(=O)[C@H](CS)NC(=O)[C@H](CS)NC(=O)CN)C(=O)N[C@@H](CS)C(N)=O	70	4.6	320	–
CC[C@H](C)[C@@H]1NC(=O)[C@H](CCCNC(=N)N)NC(=O)[C@H](CCCNC(=N)N)NC(=O)[C@@H](NC(=O)[C@H](Cc2ccc(O)cc2)NC(=O)[C@H](CCCNC(=N)N)NC(=O)[C@H](CCCNC(=N)N)NC(=O)[C@H](CCCNC(=N)N)NC(=O)[C@H](CCCNC(=N)N)NC(=O)[C@H](CC(=O)O)NC(=O)[C@H](Cc2ccc(O)cc2)NC(=O)[C@@H]2CCCN2C(=O)[C@H](CO)NC(=O)[C@H](CCCNC(=N)N)NC(=O)[C@@H]2CSSC[C@H](NC(=O)[C@@H](N)[C@@H](C)O)C(=O)N[C@@H](CCCNC(=N)N)C(=O)N[C@@H](CO)C(=O)N[C@@H](CO)C(=O)NCC(=O)N[C@@H](C)C(=O)N[C@@H](Cc3ccc(O)cc3)C(=O)N2)CSSC[C@@H](C(=O)N[C@H](C(=O)O)C(C)C)NC(=O)[C@H](C)NC(=O)[C@H](CC(=O)O)NC(=O)[C@H]([C@@H](C)O)NC1=O (HELM PEPTIDE1{T.C.R.S.S.G.A.Y.C.R.S.P.Y.D.R.R.R.R.Y.C.R.R.I.T.D.A.C.V}$PEPTIDE1,PEPTIDE1,2:R3-9:R3|PEPTIDE1,PEPTIDE1,20:R3-27:R3$$$V2.0)	44	–	–	1470
CC[C@H](C)[C@@H]1NC(=O)[C@H](CCCNC(=N)N)NC(=O)[C@H](CCCNC(=N)N)NC(=O)[C@@H](NC(=O)[C@H](Cc2ccc(O)cc2)NC(=O)[C@H](C)NC(=O)[C@H](CCCNC(=N)N)NC(=O)[C@H](CCCNC(=N)N)NC(=O)[C@H](CCCNC(=N)N)NC(=O)[C@H](CC(=O)O)NC(=O)[C@H](Cc2ccc(O)cc2)NC(=O)[C@@H]2CCCN2C(=O)[C@H](CO)NC(=O)[C@H](CCCNC(=N)N)NC(=O)[C@@H]2CSSC[C@H](NC(=O)[C@@H](N)[C@@H](C)O)C(=O)N[C@@H](CCCNC(=N)N)C(=O)N[C@@H](CO)C(=O)N[C@@H](CO)C(=O)NCC(=O)N[C@@H](CCCNC(=N)N)C(=O)N[C@@H](Cc3ccc(O)cc3)C(=O)N2)CSSC[C@@H](C(=O)N[C@H](C(=O)O)C(C)C)NC(=O)[C@H](C)NC(=O)[C@H](CC(=O)O)NC(=O)[C@H]([C@@H](C)O)NC1=O	54	–	–	4520
CC[C@H](C)[C@@H]1NC(=O)[C@H](CCCNC(=N)N)NC(=O)[C@H](CCCNC(=N)N)NC(=O)[C@@H](NC(=O)[C@H](Cc2ccc(O)cc2)NC(=O)[C@H](CCCNC(=N)N)NC(=O)[C@H](CCCNC(=N)N)NC(=O)[C@H](CCCNC(=N)N)NC(=O)[C@H](CCCNC(=N)N)NC(=O)[C@H](CC(=O)O)NC(=O)[C@H](Cc2ccc(O)cc2)NC(=O)[C@@H]2CCCN2C(=O)[C@H](CO)NC(=O)[C@H](CCCNC(=N)N)NC(=O)[C@@H]2CSSC[C@H](NC(=O)[C@@H](N)[C@@H](C)O)C(=O)N[C@@H](CCCNC(=N)N)C(=O)N[C@@H](CO)C(=O)N[C@@H](CO)C(=O)NCC(=O)N[C@@H](CCCNC(=N)N)C(=O)N[C@@H](C)C(=O)N2)CSSC[C@@H](C(=O)N[C@H](C(=O)O)C(C)C)NC(=O)[C@H](C)NC(=O)[C@H](CC(=O)O)NC(=O)[C@H]([C@@H](C)O)NC1=O (HELM PEPTIDE1{T.C.R.S.S.G.R.A.C.R.S.P.Y.D.R.R.R.R.Y.C.R.R.I.T.D.A.C.V}$PEPTIDE1,PEPTIDE1,2:R3-9:R3|PEPTIDE1,PEPTIDE1,20:R3-27:R3$$$V2.0)	10	–	–	1700
CC[C@H](C)[C@@H]1NC(=O)[C@H](CCCNC(=N)N)NC(=O)[C@H](CCCNC(=N)N)NC(=O)[C@@H](NC(=O)[C@H](Cc2ccc(O)cc2)NC(=O)[C@H](CCCNC(=N)N)NC(=O)[C@H](CCCNC(=N)N)NC(=O)[C@H](CCCNC(=N)N)NC(=O)[C@H](CCCNC(=N)N)NC(=O)[C@H](CC(=O)O)NC(=O)[C@H](Cc2ccc(O)cc2)NC(=O)[C@@H]2CCCN2C(=O)[C@H](CO)NC(=O)[C@H](CCCNC(=N)N)NC(=O)[C@@H]2CSSC[C@H](NC(=O)[C@@H](N)[C@@H](C)O)C(=O)N[C@@H](CCCNC(=N)N)C(=O)N[C@@H](CO)C(=O)N[C@@H](CO)C(=O)N[C@@H](C)C(=O)N[C@@H](CCCNC(=N)N)C(=O)N[C@@H](Cc3ccc(O)cc3)C(=O)N2)CSSC[C@H](C(=O)N[C@H](C(=O)O)C(C)C)NC(=O)[C@H](C)NC(=O)[C@H](CC(=O)O)NC(=O)[C@H]([C@@H](C)O)NC1=O	4.5	–	–	1460
CC[C@H](C)[C@@H]1NC(=O)[C@H](CCCNC(=N)N)NC(=O)[C@H](CCCNC(=N)N)NC(=O)[C@@H]2CSSC[C@H](NC(=O)[C@H](Cc3ccc(O)cc3)NC(=O)[C@H](CCCNC(=N)N)NC(=O)CNC(=O)[C@H](CO)NC(=O)[C@H](CO)NC(=O)[C@H](CCCNC(=N)N)NC(=O)[C@@H](NC(=O)[C@@H](N)[C@@H](C)O)CSSC[C@@H](C(=O)N[C@H](C(=O)O)C(C)C)NC(=O)[C@H](C)NC(=O)[C@H](CC(=O)O)NC(=O)[C@H]([C@@H](C)O)NC1=O)C(=O)N[C@@H](CCCNC(=N)N)C(=O)N[C@@H](CO)C(=O)N1CCC[C@H]1C(=O)N[C@@H](Cc1ccc(O)cc1)C(=O)N[C@@H](CC(=O)O)C(=O)N[C@@H](C)C(=O)N[C@@H](CCCNC(=N)N)C(=O)N[C@@H](CCCNC(=N)N)C(=O)N[C@@H](CCCNC(=N)N)C(=O)N[C@@H](Cc1ccc(O)cc1)C(=O)N2	34	–	–	6440
